Test: xn = mol fraction of the nth substance listed

CCCCBr + CC(C)CO
viscosity [mPa·s], 101.33 kPa
Settings	x2 = 0.101	x2 = 0.2014	x2 = 0.308	x2 = 0.4025	x2 = 0.5066	x2 = 0.61	x2 = 0.7006	x2 = 0.8004	x2 = 0.8984
298.15 K	0.626	0.671	0.743	0.83	0.98	1.196	1.436	1.845	2.449
308.15 K	0.549	0.576	0.624	0.682	0.783	0.934	1.1	1.387	1.807
318.15 K	0.492	0.512	0.555	0.593	0.664	0.774	0.895	1.098	1.389

COCCO + CC(C)CO
Settings	viscosity [mPa·s]
303.15 K, 101.3 kPa, x1 = 0.0962	2.478
303.15 K, 101.3 kPa, x1 = 0.2087	2.104
303.15 K, 101.3 kPa, x1 = 0.328	1.823
303.15 K, 101.3 kPa, x1 = 0.433	1.653
303.15 K, 101.3 kPa, x1 = 0.5976	1.493
303.15 K, 101.3 kPa, x1 = 0.6411	1.468
303.15 K, 101.3 kPa, x1 = 0.7261	1.431
303.15 K, 101.3 kPa, x1 = 0.8566	1.398
303.15 K, 101.3 kPa, x1 = 0.9229	1.391
308.15 K, 101.33 kPa, x1 = 0.1438	1.902
308.15 K, 101.33 kPa, x1 = 0.2792	1.664
308.15 K, 101.33 kPa, x1 = 0.3329	1.595
308.15 K, 101.33 kPa, x1 = 0.505	1.422
308.15 K, 101.33 kPa, x1 = 0.6648	1.32
308.15 K, 101.33 kPa, x1 = 0.7249	1.292
308.15 K, 101.33 kPa, x1 = 0.7936	1.264
308.15 K, 101.33 kPa, x1 = 0.8977	1.231

COCCO + CC(C)O
303.15 K, 101.3 kPa
Settings	viscosity [mPa·s]
x1 = 0.0989	1.54
x1 = 0.1681	1.426
x1 = 0.3537	1.24
x1 = 0.388	1.222
x1 = 0.5422	1.196
x1 = 0.5877	1.202
x1 = 0.7821	1.268
x1 = 0.8235	1.288
x1 = 0.8851	1.324

CCCC(C)O (stereo not drawn) + CC(C)OC(C)C
viscosity [mPa·s], 100 kPa
Settings	x2 = 0.0801	x2 = 0.1597	x2 = 0.2402	x2 = 0.3503	x2 = 0.4399	x2 = 0.5598	x2 = 0.6493	x2 = 0.7372	x2 = 0.8487	x2 = 0.9379
293.15 K	3.43	2.94	2.52	2.08	1.76	1.386	1.13	0.9	0.64	0.45
298.15 K	2.87	2.44	2.1	1.74	1.48	1.176	0.969	0.783	0.57	0.42
303.15 K	2.42	2.06	1.78	1.49	1.286	1.04	0.864	0.705	0.518	0.389
308.15 K	2.04	1.74	1.5	1.26	1.09	0.89	0.75	0.62	0.47	0.36
313.15 K	1.71	1.45	1.26	1.06	0.922	0.755	0.64	0.536	0.414	0.33
318.15 K	1.42	1.2	1.05	0.89	0.78	0.642	0.547	0.467	0.375	0.306
323.15 K	1.19	1.02	0.89	0.76	0.667	0.554	0.477	0.41	0.33	0.28

FC(F)(Cl)Cl + CC(F)F
101 kPa, x1 = 0.606
Settings	viscosity [mPa·s]
295.47 K	0.199
311.17 K	0.1745

CCCCNCCCC + CCC(=O)O
viscosity [mPa·s], 101.33 kPa
Settings	293.15 K	293.5 K	298.15 K	303.15 K	308.15 K	313.15 K	318.15 K	323.15 K
x2 = 0.2	–	2.45	2.21	2.05	1.87	1.69	1.54	1.44
x2 = 0.4	20.21	–	15.81	12.24	9.94	7.97	6.42	5.61
x2 = 0.5	–	–	–	48.04	35.66	27.31	21.32	17.49
x2 = 0.6	109.3	–	80.86	64.2	49.41	39.46	31.87	25.8
x2 = 0.7	125.9	–	94.32	72.81	54.5	42.04	34.15	27.7
x2 = 0.75	139.3	–	102.5	74.31	58.19	44.26	35.31	27.67
x2 = 0.8	16.74	–	14.24	11.85	10.22	8.75	7.62	6.98

CCCC(=O)O + CCC(C)=O
viscosity [mPa·s], 101 kPa
Settings	x2 = 0.1024	x2 = 0.2043	x2 = 0.3057	x2 = 0.4065	x2 = 0.5067	x2 = 0.6064	x2 = 0.7056	x2 = 0.8043	x2 = 0.9024
293.15 K	1.383	1.236	1.1	0.9737	0.8582	0.7526	0.6569	0.571	0.4948
303.15 K	1.2	1.078	0.9646	0.8589	0.761	0.6716	0.5897	0.515	0.4485
313.15 K	1.021	0.9263	0.8368	0.7525	0.6733	0.5989	0.5293	0.4645	0.4044

COCCO + CCC(C)=O
viscosity [mPa·s]
Settings	298.15 K	308.15 K	318.15 K
101 kPa, x2 = 0.1049	1.321	–	–
101 kPa, x2 = 0.2087	1.113	–	–
101 kPa, x2 = 0.3115	0.937	–	–
101 kPa, x2 = 0.413	0.78	–	–
101 kPa, x2 = 0.5135	0.64	–	–
101 kPa, x2 = 0.6128	0.525	–	–
101 kPa, x2 = 0.7112	0.464	–	–
101 kPa, x2 = 0.8085	0.43	–	–
101 kPa, x2 = 0.9047	0.41	–	–
101.33 kPa, x1 = 0.1014	0.423	0.378	0.339
101.33 kPa, x1 = 0.2118	0.474	0.419	0.373
101.33 kPa, x1 = 0.3001	0.53	0.469	0.418
101.33 kPa, x1 = 0.3864	0.591	0.521	0.463
101.33 kPa, x1 = 0.4984	0.695	0.607	0.534
101.33 kPa, x1 = 0.601	0.805	0.696	0.607
101.33 kPa, x1 = 0.695	0.938	0.802	0.692
101.33 kPa, x1 = 0.8004	1.12	0.945	0.803
101.33 kPa, x1 = 0.9019	1.334	1.108	0.931

CCCCBr + CCC(C)O
viscosity [mPa·s], 101.33 kPa
Settings	x2 = 0.11	x2 = 0.208	x2 = 0.3145	x2 = 0.3968	x2 = 0.4998	x2 = 0.6057	x2 = 0.7046	x2 = 0.786	x2 = 0.8988
298.15 K	0.613	0.642	0.689	0.742	0.833	0.975	1.176	1.428	2.018
308.15 K	0.538	0.552	0.581	0.614	0.675	0.77	0.905	1.075	1.461
318.15 K	0.483	0.492	0.512	0.537	0.579	0.653	0.741	0.855	1.111

CCCCNCCCC + CCC(C)O
viscosity [mPa·s]
Settings	298.15 K	303.15 K	308.15 K	318.15 K
101 kPa, x1 = 0.008423	–	2.446	–	–
101 kPa, x1 = 0.01776	–	2.42	–	–
101 kPa, x1 = 0.02719	–	2.398	–	–
101 kPa, x1 = 0.03174	–	2.389	–	–
101 kPa, x1 = 0.04204	–	2.369	–	–
101 kPa, x1 = 0.0502	–	2.353	–	–
101 kPa, x1 = 0.06011	–	2.332	–	–
101 kPa, x1 = 0.06621	–	2.32	–	–
101 kPa, x1 = 0.07608	–	2.299	–	–
101.33 kPa, x1 = 0.0594	2.662	–	1.888	1.409
101.33 kPa, x1 = 0.0839	2.525	–	1.79	1.328
101.33 kPa, x1 = 0.1282	2.305	–	1.657	1.24
101.33 kPa, x1 = 0.1858	2.06	–	1.516	1.147
101.33 kPa, x1 = 0.2618	1.787	–	1.344	1.054
101.33 kPa, x1 = 0.3612	1.511	–	1.181	0.948
101.33 kPa, x1 = 0.4306	1.373	–	1.089	0.886
101.33 kPa, x1 = 0.5042	1.246	–	1.012	0.827
101.33 kPa, x1 = 0.5658	1.16	–	0.952	0.784
101.33 kPa, x1 = 0.6215	1.095	–	0.898	0.753
101.33 kPa, x1 = 0.6856	1.031	–	0.855	0.712
101.33 kPa, x1 = 0.7458	0.986	–	0.818	0.696
101.33 kPa, x1 = 0.794	0.959	–	0.803	0.684
101.33 kPa, x1 = 0.8584	0.905	–	0.76	0.681
101.33 kPa, x1 = 0.9138	0.859	–	0.733	0.661

COCCO + CCC(C)O
viscosity [mPa·s]
Settings	298.15 K	303.15 K	313.15 K
100 kPa, x1 = 0.1007	2.54	–	1.61
100 kPa, x1 = 0.202	2.2	–	1.46
100 kPa, x1 = 0.3022	1.98	–	1.36
100 kPa, x1 = 0.4018	1.83	–	1.29
100 kPa, x1 = 0.5022	1.73	–	1.24
100 kPa, x1 = 0.6017	1.66	–	1.21
100 kPa, x1 = 0.701	1.61	–	1.19
100 kPa, x1 = 0.8006	1.58	–	1.18
100 kPa, x1 = 0.9006	1.56	–	1.18
101.3 kPa, x1 = 0.1228	–	2.584	–
101.3 kPa, x1 = 0.209	–	2.261	–
101.3 kPa, x1 = 0.3377	–	1.898	–
101.3 kPa, x1 = 0.428	–	1.714	–
101.3 kPa, x1 = 0.5977	–	1.488	–
101.3 kPa, x1 = 0.6442	–	1.45	–
101.3 kPa, x1 = 0.7067	–	1.411	–
101.3 kPa, x1 = 0.8447	–	1.368	–
101.3 kPa, x1 = 0.9188	–	1.308	–
